Reference: patent US20250387360A1, “Methods and Compositions for Treatment of Addiction” (University of Connecticut, priority 2024, published 2025)

Key:
Assay type in all cases: in vivo, mouse
[1] = tested on: acetylation of histone H3 and H4 in the amygdala; assay: Histone H3 and H4 acetylation ELISA in amygdala; conditions: n=7 mice/group, vs NaCl
Experimental: Amygdala samples were thawed, and the histone fractions were prepared using a commercial histone extraction kit (Abcam, Cambridge, UK) following manufacturers instruction. The bulk acetylation of histone H3 and H4 was determined using commercial ELISA kits according to the manufacturer's instructions (Abcam, Cambridge, UK). The OD of the samples was measured using a 96 well plate reader at 450 nm (iMark™ Microplate Absorbance Reader; Biorad, CA, USA). The amounts of acetyl histone H3 and H4 were measured by comparing to the kit supplied standards.
The total acetylation levels of histone H3 and H4 were quantified in the amygdala of mice subjected to the DID paradigm following supplementation with sodium valerate or NaCl (n=7 mice/group).

female mice = assay: 4-day DID regimen in young female mice; conditions: n=7/group, same DID protocol, vs vehicle control
Experimental: A standard 4-day drinking in the dark (DID) model was used to evaluate binge-like ethanol drinking patterns in mice. A 20% v/v ethanol solution was prepared by diluting 190-proof ethyl alcohol (Sigma, MO, U.S.A) with deionized water. During days 1-3, the water bottles were temporarily removed during the dark cycle of the mice, and the mice were provided with a tube containing the 20% v/v ethanol solution for a duration of two hours. On day four, the assessment of binge-like ethanol consumption took place, where the mice were given access to the 20% v/v ethanol solution for a period of four hours. The volume of fluid in the tube (read to the closest 100 μL) was measured immediately upon placement, and at two hours and four hours into the test. Following the completion of the four hours test, approximately 100 μL of blood was collected through cardiac puncture after CO2 euthanasia. Blood samples were subjected to centrifugation at 10,000 rpm for 10 minutes. The determination of blood ethanol concentrations (BEC) was performed using an Analox AMI Analyzer (Analox Instruments, MA, U.S.A). The quantity of ethanol consumed was then calculated as grams per kilogram of the mouse's body weight.

male mice (C57BL/6J) = assay: Six-week repeated DID protocol
Experimental: In this study, the impact of sodium valerate treatment on ethanol intake and blood ethanol concentration (BEC) was assessed using a six-week Drinking in the Dark (DID) protocol in male mice (C57BL/6J). All mice (n=30) were single-housed and had ad libitum access to food and their respective drinking water. Water bottles were removed 30 minutes prior to and throughout each DID session. During the two-week baseline period, all mice underwent a standardized DID paradigm consisting of a 4-day cycle each week: 2-hour access to 20% ethanol on days 1-3, followed by a 4-hour session on day 4. Starting in week three, mice were randomly assigned to one of three groups (10 mice per group): (1) Valerate-i.p., which received intraperitoneal injections of sodium valerate (200 mg/kg body weight) 30 minutes before each DID session; (2) Valerate-drinking water, which received 200 mM sodium valerate in drinking water for 30 minutes before to each DID session; and (3) Control, which received no valerate treatment. Ethanol consumption was evaluated on day 4 of each week (Wecks 1-6), and BEC was measured on day 4 of weeks 2, 4, and 6.

GABA levels = assay: GABA ELISA in stool, amygdala and plasma after DID; conditions: 10 days supplementation following DID, vs NaCl
Experimental: GABA levels in plasma, stool, and amygdala samples were determined using an ELISA kit (LDN, Labor Diagnostika Nord, Nordhorn, Germany) following the manufacturer's instructions. Plasma samples were used directly without any additional preparation. For stool and amygdala, samples, they were first thawed and then homogenized in a solution consisting of 0.01N HCl (Thermo Fisher Scientific, MA, U.S.A), ImM EDTA (Thermo Fisher Scientific, MA, U.S.A), and 4 mM sodium metabisulfite (Thermo Fisher Scientific, MA, U.S.A). After homogenization, the samples underwent centrifugation at 3000×g for 5 minutes at 4° C. before GABA estimation. To summarize the assay procedure, plasma, homogenized stool, and amygdala samples, and the kit's standards were all processed on an extraction plate. They were subsequently derivatized using an equalizing reagent and subjected to a standard competitive ELISA conducted in GABA-coated 96-well microtiter strips. The optical density (OD) of the solution within the wells was rapidly read at 450 nm using a 96-well plate reader (iMark™ Microplate Absorbance Reader; Biorad, CA, U.S.A, RRID:SCR_023799). The OD data was employed to determine the GABA concentration via a standard curve.
The levels of GABA in the amygdala were measured next, stool, and blood of the mice that underwent the DID paradigm, comparing those supplemented with sodium valerate to those supplemented with NaCl.

`CCCCC(=O)[O-].[Na+]` [sodium valerate] was tested, and the “increase in H3 acetylation in the amygdala” value [1] was “not statistically significant”, the “H4 acetylation in the amygdala” value ([1]; p<0.01) was “significantly increased” and the “alcohol binge drinking in female mice” value (female mice) was “significantly reduced”. For the same molecule, the “blood ethanol levels in female mice” value (female mice) was “significantly reduced”, the “ethanol consumption week 5, Valerate-drinking water” value (male mice (C57BL/6J); 200 mM in drinking water for 30 min before each DID session from week 3, n=10, p<0.05 vs control) was “significantly reduced” and the “BEC week 6, Valerate-drinking water” value (male mice (C57BL/6J); 200 mM in drinking water for 30 min before each DID session, p<0.01 vs control) was “significant reductions”. The “ethanol consumption week 5, Valerate-i.p.” value (male mice (C57BL/6J); 200 mg/kg i.p. 30 min before each DID session from week 3, n=10, p<0.01 vs control) was “significantly reduced”, the “BEC week 6, Valerate-i.p.” value (male mice (C57BL/6J); 200 mg/kg i.p. 30 min before each DID session, p<0.01 vs control) was “significant reductions” and the “ethanol consumption week 6, Valerate-i.p.” value (male mice (C57BL/6J); 200 mg/kg i.p. 30 min before each DID session, p<0.1 vs control) was “trend toward reduced ethanol consumption”. For the same molecule, the “effects during the initial weeks of treatment” value (male mice (C57BL/6J); both valerate groups) was “no significant effects”, the “GABA levels in plasma” value (GABA levels; n=6 mice/group) was “not significant” and the “GABA levels in stool” value (GABA levels; p=0.0001) was “elevated”. For the same molecule, the “GABA levels in the amygdala” value (GABA levels; p=0.01) was “elevated”.
